Measurements published in patent publication US20240158446A1, “CYCLIC COMPOUND HAVING SELECTIVE INHIBITORY ACTION ON KRAS OVER HRAS AND NRAS” (CHUGAI SEIYAKU KABUSHIKI KAISHA, priority 2021, published 2024).

Assays:
[1] = molecular target: GDP-bound KRAS wild-type protein (Homo sapiens, UniProt P01116); test: Binding to KRAS by surface plasmon resonance (SPR), Single Cycle Kinetics; details: SPR, Single Cycle Kinetics, GDP-bound KRAS wild-type protein; read-out: KRAS KD
[2] = molecular target: GDP-bound NRAS wild-type protein (Homo sapiens, UniProt P01111); test: Binding to NRAS by surface plasmon resonance (SPR), Single Cycle Kinetics; details: SPR, GDP-bound NRAS wild-type protein vs GDP-bound KRAS wild-type protein
Sequence of GDP-bound NRAS wild-type protein (P01111 whole entry): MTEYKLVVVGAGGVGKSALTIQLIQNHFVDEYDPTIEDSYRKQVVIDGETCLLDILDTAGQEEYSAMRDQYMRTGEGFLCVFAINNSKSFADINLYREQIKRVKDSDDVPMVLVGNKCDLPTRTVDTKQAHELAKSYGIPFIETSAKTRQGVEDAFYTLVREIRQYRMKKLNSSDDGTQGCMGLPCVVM

[3] = molecular target: GDP-bound HRAS wild-type protein (Homo sapiens, UniProt P01112); test: Binding to HRAS by surface plasmon resonance (SPR), Single Cycle Kinetics; details: SPR, GDP-bound HRAS wild-type protein vs GDP-bound KRAS wild-type protein
Sequence of GDP-bound HRAS wild-type protein (P01112 whole entry): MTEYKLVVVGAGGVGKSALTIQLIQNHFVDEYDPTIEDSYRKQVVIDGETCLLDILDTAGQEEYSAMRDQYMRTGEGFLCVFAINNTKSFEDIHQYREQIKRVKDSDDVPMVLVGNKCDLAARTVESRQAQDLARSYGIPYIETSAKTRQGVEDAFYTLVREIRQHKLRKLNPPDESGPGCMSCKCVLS

[4] = system: human lung cancer strain NCI-H441;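 note: cell proliferation inhibition after four days measured by CellTiter-Glo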

Sequence of GDP-bound KRAS wild-type protein (P01116 whole entry): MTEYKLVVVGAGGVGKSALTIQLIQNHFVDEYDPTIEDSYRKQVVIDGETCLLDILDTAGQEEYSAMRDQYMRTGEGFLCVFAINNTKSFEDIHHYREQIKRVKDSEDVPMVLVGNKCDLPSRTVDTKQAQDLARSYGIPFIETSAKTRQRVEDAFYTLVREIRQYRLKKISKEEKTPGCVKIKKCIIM

SMILES	Kd [1]	NRAS/KRAS (ratio of KD value for NRAS to KD value for KRAS) [2]	HRAS/KRAS (ratio of KD value for HRAS to KD value for KRAS) [3]	IC50 [4]
CC[C@H](C)[C@@H]1NC(=O)[C@H](COC)N(C)C(=O)C[C@@H](C(=O)N(CC)CC)N(C)C(=O)[C@H](C2CCCC2)N(C)C(=O)C2(CC(C)(C)C2)NC(=O)[C@@H]2C[C@H](C)CN2C(=O)[C@H](CCc2ccc(C(F)(F)F)c(Cl)c2)NC(=O)CN(C)C(=O)[C@H](Cc2ccc(C)cc2)N2CC/C=C\C[C@@H](C2=O)N(C)C(=O)CN(C)C1=O [PP2399]	0.31 nM	AA (a compound having 20 or more is denoted as AA)	A (a compound having 10 or more and less than 20 is denoted as A)	7.7 nM
CCO[C@@H]1C[C@H]2C(=O)NC3(CC(C)(C)C3)C(=O)N(C)[C@@H](C3CCCC3)C(=O)N(C)[C@H](C(=O)N(CC)CC)CC(=O)N(C)[C@@H](COC)C(=O)N[C@@H]([C@@H](C)CC)C(=O)N(C)CC(=O)N(C)[C@H]3C/C=C\CCN(C3=O)[C@@H](Cc3ccc(C)cc3)C(=O)N(C)CC(=O)N[C@@H](CCc3ccc(C(F)(F)F)c(Cl)c3)C(=O)N2C1 [PP2400]	0.2 nM	A (a compound having 10 or more and less than 20 is denoted as A)	A (a compound having 10 or more and less than 20 is denoted as A)	5.8 nM
CCOC[C@H]1C(=O)N[C@@H]([C@@H](C)CC)C(=O)N(C)CC(=O)N(C)[C@H]2C/C=C\CCN(C2=O)[C@@H](Cc2ccc(C)cc2)C(=O)N(C)CC(=O)N[C@@H](CCc2ccc(C(F)(F)F)c(Cl)c2)C(=O)N2C[C@H](OCC)C[C@H]2C(=O)NC2(CC(C)(C)C2)C(=O)N(C)[C@@H](C2CCCC2)C(=O)N(C)[C@H](C(=O)N(C)CC)CC(=O)N1C [PP2401]	0.12 nM	A (a compound having 10 or more and less than 20 is denoted as A)	A (a compound having 10 or more and less than 20 is denoted as A)	5.3 nM
CCCOC[C@H]1C(=O)N[C@@H]([C@@H](C)CC)C(=O)N(C)CC(=O)N(C)[C@H]2C/C=C\CCN(C2=O)[C@@H](Cc2ccc(C)cc2)C(=O)N(C)CC(=O)N[C@@H](CCc2ccc(C(F)(F)F)c(Cl)c2)C(=O)N2C[C@H](OCC)C[C@H]2C(=O)NC2(CC(C)(C)C2)C(=O)N(C)[C@@H](C2CCCC2)C(=O)N(C)[C@H](C(=O)N(C)C)CC(=O)N1C [PP2402]	0.092 nM	A (a compound having 10 or more and less than 20 is denoted as A)	A (a compound having 10 or more and less than 20 is denoted as A)	10.6 nM
CCO[C@@H]1C[C@H]2C(=O)NC3(CC(C)(C)C3)C(=O)N(C)[C@@H](C3CCCC3)C(=O)N(C)[C@H](C(=O)N(CC)CC)CC(=O)N(C)[C@@H](COC)C(=O)N[C@@H]([C@@H](C)CC)C(=O)N(C)CC(=O)N(C)[C@H]3C/C=C\CCN(C3=O)[C@@H](Cc3ccc(C)cc3)C(=O)N(C)CC(=O)N[C@@H](CCc3cc(F)c(C(F)(F)F)c(F)c3)C(=O)N2C1 [PP2403]	0.22 nM	A (a compound having 10 or more and less than 20 is denoted as A)	A (a compound having 10 or more and less than 20 is denoted as A)	7.2 nM
CCOC[C@H]1C(=O)N[C@@H]([C@@H](C)CC)C(=O)N(C)CC(=O)N(C)[C@H]2C/C=C\CCN(C2=O)[C@@H](Cc2ccc(C)cc2)C(=O)N(C)CC(=O)N[C@@H](CCc2cc(F)c(C(F)(F)F)c(F)c2)C(=O)N2C[C@H](OCC)C[C@H]2C(=O)NC2(CC(C)(C)C2)C(=O)N(C)[C@@H](C2CCCC2)C(=O)N(C)[C@H](C(=O)N(C)CC)CC(=O)N1C [PP2404]	0.09 nM	A (a compound having 10 or more and less than 20 is denoted as A)	A (a compound having 10 or more and less than 20 is denoted as A)	4.1 nM
CCOC[C@H]1C(=O)N[C@@H]([C@@H](C)CC)C(=O)N(C)CC(=O)N(C)[C@H]2C/C=C\CCN(C2=O)[C@@H](Cc2ccc(C)cc2)C(=O)N(C)CC(=O)N[C@@H](CCc2ccc(C(F)(F)F)c(OC)c2)C(=O)N2C[C@@H](C)C[C@H]2C(=O)NC2(CC(C)(C)C2)C(=O)N(C)[C@@H](C2CCCC2)C(=O)N(C)[C@H](C(=O)N(CC)CC)CC(=O)N1C [PP2405]	0.31 nM	A (a compound having 10 or more and less than 20 is denoted as A)	A (a compound having 10 or more and less than 20 is denoted as A)	8.6 nM
CCOC[C@H]1C(=O)N[C@@H]([C@@H](C)CC)C(=O)N(C)CC(=O)N(C)[C@H]2C/C=C\CCN(C2=O)[C@@H](Cc2ccc(C)cc2)C(=O)N(C)CC(=O)N[C@@H](CCc2ccc(C(F)(F)F)c(OC)c2)C(=O)N2C[C@H](OCC)C[C@H]2C(=O)NC2(CC(C)(C)C2)C(=O)N(C)[C@@H](C2CCCC2)C(=O)N(C)[C@H](C(=O)N(CC)CC)CC(=O)N1C [PP2406]	0.29 nM	A (a compound having 10 or more and less than 20 is denoted as A)	A (a compound having 10 or more and less than 20 is denoted as A)	21.3 nM
CCOC[C@H]1C(=O)N[C@@H]([C@@H](C)CC)C(=O)N(C)CC(=O)N(C)[C@H]2C/C=C\CCN(C2=O)[C@@H](Cc2ccc(C)cc2)C(=O)N(C)CC(=O)N[C@@H](CCc2cc(F)c(C(F)(F)F)c(F)c2)C(=O)N2C[C@@H](C)C[C@H]2C(=O)NC2(CC(C)(C)C2)C(=O)N(C)[C@@H](C2CCCC2)C(=O)N(C)[C@H](C(=O)N(CC)CC)CC(=O)N1C [PP2407]	0.5 nM	A (a compound having 10 or more and less than 20 is denoted as A)	A (a compound having 10 or more and less than 20 is denoted as A)	60.1 nM
CCOC[C@H]1C(=O)N[C@@H]([C@@H](C)CC)C(=O)N(C)CC(=O)N(C)[C@H]2C/C=C\CCN(C2=O)[C@@H](Cc2ccc(C)cc2)C(=O)N(C)CC(=O)N[C@@H](CCc2cc(F)c(C(F)(F)F)c(F)c2)C(=O)N2C[C@H](OCC)C[C@H]2C(=O)NC2(CC(C)(C)C2)C(=O)N(C)[C@@H](C2CCCC2)C(=O)N(C)[C@H](C(=O)N(CC)CC)CC(=O)N1C [PP2408]	0.23 nM	A (a compound having 10 or more and less than 20 is denoted as A)	A (a compound having 10 or more and less than 20 is denoted as A)	21.3 nM
CC[C@H](C)[C@@H]1NC(=O)[C@H](CC(C)C)N(C)C(=O)C[C@@H](C(=O)N(C)C)N(C)C(=O)[C@H](C2CCCC2)N(C)C(=O)C2(CC(C)(C)C2)NC(=O)[C@@H]2C[C@H](C)CN2C(=O)[C@H](CCc2ccc(C(F)(F)F)c(OC)c2)NC(=O)CN(C)C(=O)[C@H](Cc2ccc(C)cc2)N2CC/C=C\C[C@@H](C2=O)N(C)C(=O)[C@@H]2CCCN2C1=O [PP2409]	0.48 nM	A (a compound having 10 or more and less than 20 is denoted as A)	B (a compound having 3 or more and less than 10 is denoted as B)	31.9 nM
CC[C@H](C)[C@@H]1NC(=O)[C@H](CC(C)C)N(C)C(=O)C[C@@H](C(=O)N(C)CC)N(C)C(=O)[C@H](C2CCCC2)N(C)C(=O)C2(CC(C)(C)C2)NC(=O)[C@@H]2C[C@H](C)CN2C(=O)[C@H](CCc2ccc(C(F)(F)F)c(OC)c2)NC(=O)CN(C)C(=O)[C@H](Cc2ccc(C)cc2)N2CC/C=C\C[C@@H](C2=O)N(C)C(=O)[C@@H]2CCCN2C1=O [PP2410]	1.1 nM	A (a compound having 10 or more and less than 20 is denoted as A)	A (a compound having 10 or more and less than 20 is denoted as A)	108 nM
CC[C@H](C)[C@@H]1NC(=O)[C@H](CC(C)C)N(C)C(=O)C[C@@H](C(=O)N(C)CC)N(C)C(=O)[C@H](C2CCCC2)N(C)C(=O)C2(CC(C)(C)C2)NC(=O)[C@@H]2C[C@H](C)CN2C(=O)[C@H](CCc2cc(F)c(C(F)(F)F)c(F)c2)NC(=O)CN(C)C(=O)[C@H](Cc2ccc(C)cc2)N2CC/C=C\C[C@@H](C2=O)N(C)C(=O)[C@@H]2CCCN2C1=O [PP2411]	1 nM	A (a compound having 10 or more and less than 20 is denoted as A)	A (a compound having 10 or more and less than 20 is denoted as A)	91.4 nM
CCO[C@H](C)[C@@H]1NC(=O)[C@H](CC(C)C)N(C)C(=O)C[C@@H](C(=O)N(C)C)N(C)C(=O)[C@H](C2CCCC2)N(C)C(=O)C2(CC(C)(C)C2)NC(=O)[C@@H]2C[C@H](C)CN2C(=O)[C@H](CCc2ccc(C(F)(F)F)c(OC)c2)NC(=O)CN(C)C(=O)[C@H](Cc2ccc(C)cc2)N2CC/C=C\C[C@@H](C2=O)N(C)C(=O)CN(C)C1=O [PP2412]	0.15 nM	A (a compound having 10 or more and less than 20 is denoted as A)	B (a compound having 3 or more and less than 10 is denoted as B)	21 nM
